According to patent US9650339B2, “Inhibitors of histone demethylases” (Gilead Sciences, Inc., priority 2013, dated 2017):

Assays:
Assay type in all cases: cell-based
L363 = assay: Cell proliferation assay L363; conditions: Homo sapiens, L-363; L363, Plasma cell leukemia; method of Example 5
Method: (§1) MCF7 cells were seeded in multi well plates at a density optimized to give approximately 90% confluent cells at the time of harvest. Cells were incubated for 24 hours before addition of compound. Compounds were diluted in complete medium and added to the plates in duplicates. The final concentration of DMSO was maximum 0.5%. Complete medium used was DMEM with GlutaMAX containing 10% FBS and pen/strep.
(§2) 120 hours after addition of compounds, the plates were harvested and analyzed by ATPlite 1 Step (Perkin Elmer, cat no 6016739) according to the manufactures recommendation.
(§3) The assays were performed by the method of Example 5 by seeding the relevant cell line at a density optimized to give approximately 90% confluent cells at the time of harvest.

ARPE19 = assay: Cell proliferation assay ARPE19; conditions: Homo sapiens, ARPE-19; ARPE19, Retinal pigmented epithelium; method of Example 5
Method: as §1, §2, §3

A375 = assay: Cell proliferation assay A375; conditions: Homo sapiens, A-375; A375, Melanoma; method of Example 5
Method: as §1, §2, §3

AMO1 = assay: Cell proliferation assay AMO1; conditions: Homo sapiens; AMO1, Plasmacytoma; method of Example 5
Method: as §1, §2, §3

NCIH929 = assay: Cell proliferation assay NCIH929; conditions: Homo sapiens, NCI-H929; NCIH929, Myeloma; method of Example 5
Method: as §1, §2, §3

EJM = assay: Cell proliferation assay EJM; conditions: Homo sapiens, Myeloma, method of Example 5
Method: as §1, §2, §3

HEPG2 = assay: Cell proliferation assay HEPG2; conditions: Homo sapiens; HEPG2, Hepatocellular carcinoma; method of Example 5
Method: as §1, §2, §3

HCC1954 = assay: Cell proliferation assay HCC1954; conditions: Homo sapiens; HCC1954, Breast dutal carcinoma; method of Example 5
Method: as §1, §2, §3

MDA MB 231 = assay: Cell proliferation assay MDA MB 231; conditions: Homo sapiens; MDA MB 231, Breast carcinoma; method of Example 5
Method: as §1, §2, §3

RAJI = assay: Cell proliferation assay RAJI; conditions: Homo sapiens, Burkitt's lymphoma, method of Example 5
Method: as §1, §2, §3

K562 = assay: Cell proliferation assay K562; conditions: Homo sapiens; K562, Chronic myelogenous leukemia; method of Example 5
Method: as §1, §2, §3

MM1S = assay: Cell proliferation assay MM1S; conditions: Homo sapiens, MM1.S, Myeloma, method of Example 5
Method: as §1, §2, §3

MOLP2 = assay: Cell proliferation assay MOLP2; conditions: Homo sapiens, MOLP-2; MOLP2, Myeloma; method of Example 5
Method: as §1, §2, §3

SK-MEL-28 = assay: Cell proliferation assay SK-MEL-28; conditions: Homo sapiens; SK-MEL-28, Melanoma; method of Example 5
Method: as §1, §2, §3

Jurkat Clone E6-1 = assay: Cell proliferation assay Jurkat Clone E6-1; conditions: Homo sapiens; Jurkat Clone E6-1, Acute T cell lymphoma; method of Example 5
Method: as §1, §2, §3

SU DHL6 = assay: Cell proliferation assay SU DHL6; conditions: Homo sapiens, SU-DHL-6; SU DHL6, B cell lymphoma; method of Example 5
Method: as §1, §2, §3

L1236 = assay: Cell proliferation assay L1236; conditions: Homo sapiens, L-1236; L1236, Hodgkin's lymphoma; method of Example 5
Method: as §1, §2, §3

KMS 12 BM = assay: Cell proliferation assay KMS 12 BM; conditions: Homo sapiens, Myeloma, method of Example 5
Method: as §1, §2, §3

OPM2 = assay: Cell proliferation assay OPM2; conditions: Homo sapiens, OPM-2; OPM2, Myeloma; method of Example 5
Method: as §1, §2, §3

NALM6 = assay: Cell proliferation assay NALM6; conditions: Homo sapiens, NALM-6; NALM6, Lymphoblastic leukemia; method of Example 5
Method: as §1, §2, §3

U2OS = assay: Cell proliferation assay U2OS; conditions: Homo sapiens, Osteosarcoma, method of Example 5
Method: as §1, §2, §3

BT474 = assay: Cell proliferation assay BT474; conditions: Homo sapiens, BT-474; BT474, Mammary ductal carcinoma; method of Example 5
Method: as §1, §2, §3

RPMI8226 = assay: Cell proliferation assay RPMI8226; conditions: Homo sapiens, RPMI-8226; RPMI8226, Myeloma; method of Example 5
Method: as §1, §2, §3

KARPAS620 = assay: Cell proliferation assay KARPAS620; conditions: Homo sapiens, Karpas-620; KARPAS620, Plasma cell leukemia; method of Example 5
Method: as §1, §2, §3

MIA PACA2 = assay: Cell proliferation assay MIA PACA2; conditions: Homo sapiens, MIA PaCa-2; MIA PACA2, Pancreas epithelial carcinoma; method of Example 5
Method: as §1, §2, §3

UH01 = assay: Cell proliferation assay UH01; conditions: Homo sapiens; UH01, Hodgkin's lymphoma; method of Example 5
Method: as §1, §2, §3

LP1 = assay: Cell proliferation assay LP1; conditions: Homo sapiens, LP-1; LP1, Myeloma; method of Example 5
Method: as §1, §2, §3

U266 = assay: Cell proliferation assay U266; conditions: Homo sapiens, U-266; U266, Myeloma; method of Example 5
Method: as §1, §2, §3

SK MM2 = assay: Cell proliferation assay SK MM2; conditions: Homo sapiens, SK-MM-2; SK MM2, Plasma cell leukemia; method of Example 5
Method: as §1, §2, §3

JJN3 = assay: Cell proliferation assay JJN3; conditions: Homo sapiens, JJN-3; JJN3, Plasma cell leukemia; method of Example 5
Method: as §1, §2, §3

MM1R = assay: Cell proliferation assay MM1R; conditions: Homo sapiens, MM.1R, Myeloma, method of Example 5
Method: as §1, §2, §3

MOLP8 = assay: Cell proliferation assay MOLP8; conditions: Homo sapiens, MOLP-8; MOLP8, Myeloma; method of Example 5
Method: as §1, §2, §3

Structure (SMILES) | EC50 (HEPG2) [nM] | EC50 (RAJI) [nM] | EC50 (U2OS) [nM] | EC50 (BT474) [nM] | EC50 (RPMI8226) [nM] | EC50 (KARPAS620) [nM] | EC50 (MIA PACA2) [nM] | EC50 (L363) [nM] | EC50 (ARPE19) [nM] | EC50 (NCIH929) [nM] | EC50 (EJM) [nM] | EC50 (MDA MB 231) [nM] | EC50 (MOLP2) [nM] | EC50 (L1236) [nM] | EC50 (OPM2) [nM] | EC50 (NALM6) [nM] | other results
CCN(CCN(C)C)C(=O)CNCc1cc(CNC(=O)C(F)(F)F)ccn1 [Compound 25, N-[(2-{[({[2-(dimethylamino)ethyl]-(ethyl)carbamoyl}-methyl)amino]methyl}-pyrtdin-4-yl)methyl]-2,2,2-trifluoroacetamide] | > 2500 | > 2500 | – | – | – | – | – | > 2500 | > 2500 | 250 to 2500 | > 2500 | > 2500 | 250 to 2500 | > 2500 | 250 to 2500 | – | EC50 (A375): 250 to 2500 nM; EC50 (AMO1): < 250 nM; EC50 (HCC1954): > 2500 nM; EC50 (K562): 250 to 2500 nM; EC50 (MM1S): < 250 nM; EC50 (SK-MEL-28): > 2500 nM; EC50 (Jurkat Clone E6-1): > 2500 nM; EC50 (SU DHL6): < 250 nM; EC50 (KMS 12 BM): < 250 nM
CCN(CCN(C)C)C(=O)CNCc1cc(C2OCC(Cc3ccccc3)CN2C(=O)C(F)(F)F)ccn1 (stereo not shown) [Compound 90, 2-[({4-[5-benzyl-3-(trifluoroacetyl)-1,3-oxazinan-2-yl]pyridin-2-yl}methyl)amino]-N-[2-(dimethylamino)-ethyl]-N-ethylacetamide] | > 2500 | > 2500 | – | – | 250 to 2500 | < 250 | – | – | – | – | – | – | – | – | – | – | EC50 (MM1R): < 250 nM; EC50 (MOLP8): < 250 nM
CCN(CC)CCCCNCc1cc(C=O)ccn1 [Compound 107, 2-({[4-(diethylamino)-butyl]amino}-methyl)pyridine-4-carbaldehyde] | – | – | > 2500 | < 250 | > 2500 | – | > 2500 | – | > 2500 | – | – | > 2500 | > 2500 | – | 250 to 2500 | < 250 | –

Now from value to molecule, other results behind:

EC50 (HEPG2) [nM] | EC50 (RAJI) [nM] | EC50 (U2OS) [nM] | EC50 (BT474) [nM] | EC50 (RPMI8226) [nM] | EC50 (KARPAS620) [nM] | EC50 (MIA PACA2) [nM] | Structure (SMILES) | EC50 (L363) [nM] | EC50 (ARPE19) [nM] | EC50 (NCIH929) [nM] | EC50 (EJM) [nM] | EC50 (MDA MB 231) [nM] | EC50 (MOLP2) [nM] | EC50 (L1236) [nM] | EC50 (OPM2) [nM] | EC50 (NALM6) [nM] | other results
> 2500 | > 2500 | > 2500 | 250 to 2500 | > 2500 | > 2500 | > 2500 | C(=N/C1CC1)/c1ccnc(CNCCCN2CCCC2)c1 [Compound 42, N-{[2-({[3-(pyrrolidin-1-yl)propyl]amino}-methyl)pyridin-4-yl]methylidene}-cyclopropanamine] | – | > 2500 | – | – | > 2500 | – | > 2500 | > 2500 | < 250 | –
> 2500 | > 2500 | – | < 250 | > 2500 | < 250 | > 2500 | CCN(CC)CCCCNCc1cc(/C=N/CCO)ccn1 [Compound 61, 2-[{[2-({[4-(diethylamino)-butyl]amino}-methyl)pyridin-4-yl]methylidene}-amino]ethan-1-ol] | > 2500 | > 2500 | > 2500 | > 2500 | – | – | – | – | – | EC50 (UH01): > 2500 nM; EC50 (LP1): > 2500 nM; EC50 (U266): > 2500 nM; EC50 (SK MM2): 250 to 2500 nM; EC50 (JJN3): > 2500 nM
